Among the data in patent US10745382B2 (BRISTOL-MYERS SQUIBB COMPANY, priority 2015, dated 2020) are IC50 values, retold here.

Read-outs that look alike come from different tables or passages of the source.

For the assay, the target named is T1, PD-1/PD-L1 (Homo sapiens, UniProt Q9NZQ7).
T1 construct: made in house; host or cells: HEK293T
As to the kind of experiment: PD-1/PD-L1 Homogenous Time-Resolved Fluorescence (HTRF) binding assay. The conditions noted are these: PD-L1-His 10 nM, PD-1-Ig 20 nM, read-out: Range or IC50. Summed up:
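Binding was measured by HTRF in dPBS with 0.1% BSA and 0.05% Tween-20. Detection used europium cryptate anti-Ig (1 nM final) and APC anti-His (20 nM final) added over the binding reaction.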
On the technique in general: TR-FRET usually uses a lanthanide donor and a delayed reading to cut background.

A word on the IC50: it is the concentration needed to halve the response being measured.

T1 sequence (Q9NZQ7 with tags, fused parts or gaps): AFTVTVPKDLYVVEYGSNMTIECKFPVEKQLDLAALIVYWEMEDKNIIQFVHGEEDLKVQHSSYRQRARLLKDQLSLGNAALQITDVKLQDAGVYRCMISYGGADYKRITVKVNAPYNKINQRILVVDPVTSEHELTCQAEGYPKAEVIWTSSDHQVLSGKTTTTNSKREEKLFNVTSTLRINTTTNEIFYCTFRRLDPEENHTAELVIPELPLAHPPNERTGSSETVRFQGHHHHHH

With `Cc1c(COc2cc(OCc3cncc(C#N)c3)c(CN[C@@](C)(CO)C(=O)O)cc2Cl)cccc1-c1cccc(OCCCNC[C@H](O)CO)c1Cl` [Example 2006, (S)-2-((5-chloro-4-((2′-chloro-3′-(3-(((S)-2,3-dihydroxypropyl)amino)propoxy)-2-methyl-[1,1′-biphenyl]-3-yl)methoxy)-2-((5-cyanopyridin-3-yl)methoxy)benzyl)amino)-3-hydroxy-2-methylpropanoic Acid], the IC50 (value given as range class) was in the range of 0.21 to 10 nM.

Turning to `Cc1c(COc2cc(OCc3cncc(C#N)c3)c(CN3CCCC[C@H]3C(=O)O)cc2Cl)cccc1-c1cccc(OCCCNC[C@H](O)CO)c1Cl` [Example 2007, (S)-1-(5-chloro-4-((2′-chloro-3′-(3-(((S)-2,3-dihydroxypropyl)amino)propoxy)-2-methyl-[1,1′-biphenyl]-3-yl)methoxy)-2-((5-cyanopyridin-3-yl)methoxy)benzyl)piperidine-2-carboxylic Acid], the half-maximal inhibitory concentration (IC50) (numeric IC50) amounted to 0.88 nM.

Consider `Cc1c(COc2cc(OCc3cncc(C#N)c3)c(CN[C@](C)(CO)C(=O)O)cc2Cl)cccc1-c1cccc(OCCCN2CCC[C@H](C(=O)O)C2)c1Cl` [Example 2008, (S)-1-(3-((3′-((4-((((R)-2-carboxy-1-hydroxypropan-2-yl)amino)methyl)-2-chloro-5-((5-cyanopyridin-3-yl)methoxy)phenoxy)methyl)-2-chloro-2′-methyl-[1,1′-biphenyl]-3-yl)oxy)propyl)piperidine-3-carboxylic Acid], for which the 50% inhibitory concentration (IC50) (value given as range class) lay within 0.21 to 10 nM.

With `Cc1c(COc2cc(OCc3cncc(C#N)c3)c(CO)cc2Cl)cccc1-c1cccc(OCCCN2CCC[C@H](C(=O)O)C2)c1Cl` [Example 2009, (S)-1-(3-((2-chloro-3′-((2-chloro-5-((5-cyanopyridin-3-yl)methoxy)-4-(hydroxymethyl)phenoxy)methyl)-2′-methyl-[1,1′-biphenyl]-3-yl)oxy)propyl)piperidine-3-carboxylic Acid], the IC50 (value given as range class) lay within 10 to 100 nM.

As for `Cc1c(COc2cc(OCc3cncc(C#N)c3)c(CNCCc3ccncc3)cc2Cl)cccc1-c1cccc(OCCCNCCc2ccncc2)c1Cl` [Example 2010, 5-((4-chloro-5-((2′-chloro-2-methyl-3′-(3-((2-(pyridin-4-yl)ethyl)amino)propoxy)-[1,1′-biphenyl]-3-yl)methoxy)-2-(((2-(pyridin-4-yl)ethyl)amino)methyl)phenoxy)methyl)nicotinonitrile], the IC50 (value given as range class) fell in the range of 0.21 to 10 nM.

Turning to `Cc1c(COc2cc(OCc3cncc(C#N)c3)c(CN3CCN(CCO)CC3)cc2Cl)cccc1-c1cccc(OCCCN2CCN(CCO)CC2)c1Cl` [Example 2011, 5-((4-chloro-5-((2′-chloro-3′-(3-(4-(2-hydroxyethyl)piperazin-1-yl)propoxy)-2-methyl-[1,1′-biphenyl]-3-yl)methoxy)-2-((4-(2-hydroxyethyl)piperazin-1-yl)methyl)phenoxy)methyl)nicotinonitrile], under “value given as range class”, the IC50 was 0.21 to 10 nM.

On to `Cc1c(COc2cc(OCc3cncc(C#N)c3)c(CN[C@](C)(CO)C(=O)O)cc2Cl)cccc1-c1cccc(OCCCN2CC(N(C)C)C2)c1Cl` [Example 2013, (R)-2-((5-chloro-4-((2′-chloro-3′-(3-(3-(dimethylamino)azetidin-1-yl)propoxy)-2-methyl-[1,1′-biphenyl]-3-yl)methoxy)-2-((5-cyanopyridin-3-yl)methoxy)benzyl)amino)-3-hydroxy-2-methylpropanoic Acid], for which the concentration for half-maximal inhibition (IC50) (value given as range class) is 0.21 to 10 nM.

Consider `Cc1c(COc2cc(O)c(CO)cc2Cl)cccc1-c1cccc(OCCCN2CC(N(C)C)C2)c1Cl` [Example 2014, 4-chloro-5-((2′-chloro-3′-(3-(3-(dimethylamino)azetidin-1-yl)propoxy)-2-methyl-[1,1′-biphenyl]-3-yl)methoxy)-2-(hydroxymethyl)phenol], for which the IC50 (value given as range class) lay within 10 to 100 nM.

On to `Cc1c(COc2cc(OCc3cncc(C#N)c3)c(CO)cc2Cl)cccc1-c1cccc(OCCCN2CC(N(C)C)C2)c1Cl` [Example 2015, 5-((4-chloro-5-((2′-chloro-3′-(3-(3-(dimethylamino)azetidin-1-yl)propoxy)-2-methyl-[1,1′-biphenyl]-3-yl)methoxy)-2-(hydroxymethyl)phenoxy)methyl)nicotinonitrile], for which the IC50 (value given as range class) lay in the range of 0.21 to 10 nM.

On to `Cc1c(COc2cc(OCc3cncc(C#N)c3)c(CN[C@](C)(CO)C(=O)O)cc2Cl)cccc1-c1cccc(OCCCN2CCCCC2)c1Cl` [Example 2016, (R)-2-((5-chloro-4-((2′-chloro-2-methyl-3′-(3-(piperidin-1-yl)propoxy)-[1,1′-biphenyl]-3-yl)methoxy)-2-((5-cyanopyridin-3-yl)methoxy)benzyl)amino)-3-hydroxy-2-methylpropanoic Acid], for which the IC50 (value given as range class) is 0.21 to 10 nM.

Regarding `Cc1c(COc2cc(O)c(CO)cc2Cl)cccc1-c1cccc(OCCCN2CCCCC2)c1Cl` [Example 2017, 4-chloro-5-((2′-chloro-2-methyl-3′-(3-(piperidin-1-yl)propoxy)-[1,1′-biphenyl]-3-yl)methoxy)-2-(hydroxymethyl)phenol], the half-inhibitory concentration (IC50) (value given as range class) was in the range of 10 to 100 nM.

As to `Cc1c(COc2cc(OCc3cncc(C#N)c3)c(CO)cc2Cl)cccc1-c1cccc(OCCCN2CCCCC2)c1Cl` [Example 2018, 5-((4-chloro-5-((2′-chloro-2-methyl-3′-(3-(piperidin-1-yl)propoxy)-[1,1′-biphenyl]-3-yl)methoxy)-2-(hydroxymethyl)phenoxy)methyl)nicotinonitrile], where the note is “value given as range class”, the IC50 lay within 0.21 to 10 nM.

For the molecule `CC(=O)NC1CCN(CCCOc2cccc(-c3cccc(COc4cc(OCc5cncc(C#N)c5)c(CN[C@](C)(CO)C(=O)O)cc4Cl)c3C)c2Cl)C1` (stereo partly drawn) [Example 2019, (2R)-2-((4-((3′-(3-(3-acetamidopyrrolidin-1-yl)propoxy)-2′-chloro-2-methyl-[1,1′-biphenyl]-3-yl)methoxy)-5-chloro-2-((5-cyanopyridin-3-yl)methoxy)benzyl)amino)-3-hydroxy-2-methylpropanoic Acid], the IC50 (value given as range class) was in the range of 0.21 to 10 nM.

Turning to `CC(=O)NC1CCN(CCCOc2cccc(-c3cccc(COc4cc(O)c(CO)cc4Cl)c3C)c2Cl)C1` (stereo not shown) [Example 2020, N-(1-(3-((2-chloro-3′-((2-chloro-5-hydroxy-4-(hydroxymethyl)phenoxy)methyl)-2′-methyl-[1,1′-biphenyl]-3-yl)oxy)propyl)pyrrolidin-3-yl)acetamide], the IC50 (numeric IC50) stood at 63 nM.

`CC(=O)NC1CCN(CCCOc2cccc(-c3cccc(COc4cc(OCc5cncc(C#N)c5)c(CO)cc4Cl)c3C)c2Cl)C1` (stereo not shown) [Example 2021, N-(1-(3-((2-chloro-3′-((2-chloro-5-((5-cyanopyridin-3-yl)methoxy)-4-(hydroxymethyl)phenoxy)methyl)-2′-methyl-[1,1′-biphenyl]-3-yl)oxy)propyl)pyrrolidin-3-yl)acetamide]: the IC50 (value given as range class) was in the range of 0.21 to 10 nM.

Regarding `CC(=O)N[C@@H]1CCN(CCCOc2cccc(-c3cccc(COc4cc(OCc5cncc(C#N)c5)c(CN[C@](C)(CO)C(=O)O)cc4Cl)c3C)c2Cl)C1` [Example 2022, (R)-2-((4-((3′-(3-((R)-3-acetamidopyrrolidin-1-yl)propoxy)-2′-chloro-2-methyl-[1,1′-biphenyl]-3-yl)methoxy)-5-chloro-2-((5-cyanopyridin-3-yl)methoxy)benzyl)amino)-3-hydroxy-2-methylpropanoic Acid], the 50% inhibitory concentration (IC50) (value given as range class) is 0.21 to 10 nM.
